SMILES strings stand for the structures. Several values for one entry are separate records, joined by “and”; a condition that tells them apart may be missing. Equal values may be shown once. Inconclusive results and toxic doses are left out.

The test deals with L1210 leukemia ip in BDF1 mice, survival T/C. The test can be described thus: NCI In Vivo Anticancer Drug Screen. Data for tumor model L1210 Leukemia (intraperitoneal) in B6D2F1 (BDF1) mice. As to conditions: endpoint: mean survival time, higher = longer survival. The essentials:
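In this screen, tumor-bearing mice given compound are compared to those given vehicle, and their survival values are reported as a treated-to-control quotient.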

Where [1] appears, read: dose: 100.0 mg/kg/injection, schedule: Q01DX009 (ip), vehicle: Klucel (hydroxypropylcellulose) (HPC).
Where [2] appears, read: dose: 200.0 mg/kg/injection, schedule: Q01DX009 (ip), vehicle: Klucel (hydroxypropylcellulose) (HPC).
The mark [3] stands for this setting: dose: 400.0 mg/kg/injection, schedule: Q01DX009 (ip), vehicle: Klucel (hydroxypropylcellulose) (HPC).
Where [4] appears, read: dose: 50.0 mg/kg/injection, schedule: Q04DX003 (ip), vehicle: saline.
Setting [5] is: dose: 100.0 mg/kg/injection, schedule: Q01DX001 (ip), vehicle: carboxymethylcellulose (CMC).
Setting [6] is: dose: 200.0 mg/kg/injection, schedule: Q01DX001 (ip), vehicle: carboxymethylcellulose (CMC).
[7] abbreviates: dose: 400.0 mg/kg/injection, schedule: Q01DX001 (ip), vehicle: carboxymethylcellulose (CMC).
The mark [8] stands for this setting: dose: 100.0 mg/kg/injection, schedule: Q04DX003 (ip), vehicle: Klucel (hydroxypropylcellulose) (HPC).
Setting [9] is: dose: 200.0 mg/kg/injection, schedule: Q04DX003 (ip), vehicle: Klucel (hydroxypropylcellulose) (HPC).
The mark [10] stands for this setting: dose: 400.0 mg/kg/injection, schedule: Q04DX003 (ip), vehicle: Klucel (hydroxypropylcellulose) (HPC).

For `CCCCCCCCCCCCSC(=S)N(CC)CC`, the T/C by setting is: (dose: 87.5 mg/kg/injection, schedule: Q01DX009 (ip), vehicle: other) 89 % of control; (dose: 175.0 mg/kg/injection, schedule: Q01DX009 (ip), vehicle: other) 93 % of control; (dose: 350.0 mg/kg/injection, schedule: Q01DX009 (ip), vehicle: other) 97 % of control.

For the compound `COc1ccc2c(c1)CCC1=C(C)C(=O)CCC12C` (centres undefined), the T/C (dose: 100.0 mg/kg/injection, schedule: Q01DX001 (ip), vehicle: Klucel (hydroxypropylcellulose) (HPC)) is 102 % of control; the T/C (dose: 200.0 mg/kg/injection, schedule: Q01DX001 (ip), vehicle: Klucel (hydroxypropylcellulose) (HPC)) is 98 % of control; the T/C (dose: 400.0 mg/kg/injection, schedule: Q01DX001 (ip), vehicle: Klucel (hydroxypropylcellulose) (HPC)) was 98 % of control.

Regarding `C[C@]12CC[C@@H]3c4ccc(OCC(=O)O)cc4CC[C@H]3[C@@H]1CCC2=O`, the T/C is 97 % of control (dose: 75.0 mg/kg/injection, schedule: Q01DX009 (ip), vehicle: Klucel (hydroxypropylcellulose) (HPC)) and 90 % of control (dose: 150.0 mg/kg/injection, schedule: Q01DX009 (ip), vehicle: Klucel (hydroxypropylcellulose) (HPC)).

Turning to `O=C(CCCC(=O)N/N=C/c1ccc(O)c(O)c1)N/N=C\c1ccc(O)c(O)c1`, the T/C (dose: 50.0 mg/kg/injection, schedule: Q01DX001 (ip), vehicle: other) is 104 % of control; the T/C (dose: 100.0 mg/kg/injection, schedule: Q01DX001 (ip), vehicle: other) is 93 % of control; the T/C (dose: 200.0 mg/kg/injection, schedule: Q01DX001 (ip), vehicle: other) is 98 % of control; the T/C (dose: 400.0 mg/kg/injection, schedule: Q01DX001 (ip), vehicle: other) is 91 % of control.

Regarding `Cc1csc[n+]1CCS(=O)(=O)[O-]`, the T/C reads like this: (dose: 100.0 mg/kg/injection, schedule: Q01DX001 (ip), vehicle: saline) 95 % of control; (dose: 200.0 mg/kg/injection, schedule: Q01DX001 (ip), vehicle: saline) 97 % of control; (dose: 400.0 mg/kg/injection, schedule: Q01DX001 (ip), vehicle: saline) 97 % of control.

On to `CC1(C)CCc2c(O)c(N=O)c3ccccc3c2O1`, for which the T/C by setting is: (dose: 100.0 mg/kg/injection, schedule: Q01DX001 (ip), vehicle: saline with Tween-80) 103 % of control; (dose: 200.0 mg/kg/injection, schedule: Q01DX001 (ip), vehicle: saline with Tween-80) 95 % of control; (dose: 400.0 mg/kg/injection, schedule: Q01DX001 (ip), vehicle: saline with Tween-80) 95 % of control.

Turning to `Cc1ccc(NC(=S)NNC(=S)NNc2ccccc2)cc1C`, the T/C by setting is: under setting [1], 90 % of control; (dose: 100.0 mg/kg/injection, schedule: Q04DX003 (ip), vehicle: saline with Tween-80) 89 % of control; under setting [2], 102 % of control; (dose: 200.0 mg/kg/injection, schedule: Q04DX003 (ip), vehicle: saline with Tween-80) 93 % of control; under setting [3], 103 % of control; (dose: 400.0 mg/kg/injection, schedule: Q04DX003 (ip), vehicle: saline with Tween-80) 91 % of control.

`CC(C)CCC[C@@H](C)[C@H]1CC[C@H]2[C@@H]3CCC(=O)[C@](C)(CCC(=O)O)[C@H]3CC[C@]12C`: the T/C reads like this: (dose: 50.0 mg/kg/injection, schedule: Q04DX003 (ip), vehicle: alcohol) 102 % of control; (dose: 100.0 mg/kg/injection, schedule: Q04DX003 (ip), vehicle: alcohol) 98 % of control; (dose: 200.0 mg/kg/injection, schedule: Q04DX003 (ip), vehicle: alcohol) 102 % of control.

For the compound `CC(CN1c2ccccc2Sc2cccnc21)N(C)C` (centres undefined), the T/C by setting is: (dose: 3.12 mg/kg/injection, schedule: Q01DX009 (ip), vehicle: saline) 97 % of control; (dose: 6.25 mg/kg/injection, schedule: Q01DX009 (ip), vehicle: saline) 97 % of control; (dose: 12.5 mg/kg/injection, schedule: Q01DX009 (ip), vehicle: saline) 101 % of control; (dose: 25.0 mg/kg/injection, schedule: Q01DX009 (ip), vehicle: saline) 103 % of control; (dose: 25.0 mg/kg/injection, schedule: Q04DX003 (ip), vehicle: saline) 108 % of control; (dose: 50.0 mg/kg/injection, schedule: Q01DX009 (ip), vehicle: saline) 111 % of control. Besides, the T/C under setting [4] is 102 % of control.

As for `O=[N+]([O-])c1ccc(N/N=C/c2ccccn2)cc1`, the T/C runs as follows: under setting [1], 87 % of control; under setting [2], 95 % of control; under setting [3], 97 % of control.

As for `CC(C)Cn1cnc2c(Sc3c([N+](=O)[O-])ncn3C)nc(N)nc21`, the T/C runs as follows: (dose: 6.0 mg/kg/injection, schedule: Q01DX015 (ip), vehicle: carboxymethylcellulose (CMC)) 104 % of control; (dose: 12.0 mg/kg/injection, schedule: Q01DX015 (ip), vehicle: carboxymethylcellulose (CMC)) 111 % of control; (dose: 25.0 mg/kg/injection, schedule: Q01DX015 (ip), vehicle: carboxymethylcellulose (CMC)) 117 % of control; (dose: 50.0 mg/kg/injection, schedule: Q01DX001 (ip), vehicle: carboxymethylcellulose (CMC)) 114 % of control; under setting [5], 117 % of control; under setting [6], 119 % of control. For the same compound, the T/C runs as follows: under setting [7], 162 % of control; (dose: 600.0 mg/kg/injection, schedule: Q01DX001 (ip), vehicle: carboxymethylcellulose (CMC)) 170 % of control.

Consider `Cc1cc(C)c(OCC2CO2)c(C)c1` (centres undefined), for which the T/C runs as follows: under setting [8], 105 % of control; under setting [9], 95 % of control; under setting [10], 89 % of control.

For the compound `O=C(NSNc1ccccc1)c1ccccc1`, the T/C by setting is: (dose: 100.0 mg/kg/injection, schedule: Q04DX002 (ip), vehicle: Klucel (hydroxypropylcellulose) (HPC)) 110 % of control; (dose: 200.0 mg/kg/injection, schedule: Q04DX002 (ip), vehicle: Klucel (hydroxypropylcellulose) (HPC)) 103 % of control; (dose: 400.0 mg/kg/injection, schedule: Q04DX002 (ip), vehicle: Klucel (hydroxypropylcellulose) (HPC)) 100 % of control.

With `COC1OCC2OC(C)(C)OC2C1OS(=O)(=O)c1ccc([N+](=O)[O-])cc1` (centres undefined), the T/C under setting [5] is 95 % of control, the T/C under setting [6] was 95 % of control and the T/C under setting [7] was 101 % of control.

`CCC1(CCCCCl)OCCO1`: the T/C was 103 % of control under setting [1], 97 % of control under setting [2] and 103 % of control under setting [3].

Take `CN(C)CCCNc1nc(-c2cccc(C(Cl)(Cl)Cl)c2)nc(C(Cl)(Cl)Cl)n1`: the T/C by setting is: (dose: 75.0 mg/kg/injection, schedule: Q01DX001 (ip), vehicle: saline) 95 % of control; (dose: 150.0 mg/kg/injection, schedule: Q01DX001 (ip), vehicle: saline) 101 % of control; (dose: 300.0 mg/kg/injection, schedule: Q01DX001 (ip), vehicle: saline) 91 % of control.

With `CNC(=O)N(C)N=O`, the T/C by setting is: (dose: 10.0 mg/kg/injection, schedule: Q01DX Z (ip), vehicle: carboxymethylcellulose (CMC)) 92 % of control; (dose: 75.0 mg/kg/injection, schedule: Q01DX Z (ip), vehicle: carboxymethylcellulose (CMC)) 157 % of control and 168 % of control; (dose: 100.0 mg/kg/injection, schedule: Q01DX Z (ip), vehicle: carboxymethylcellulose (CMC)) 155 % of control; (dose: 125.0 mg/kg/injection, schedule: Q01DX Z (ip), vehicle: carboxymethylcellulose (CMC)) 101 % of control.

`Clc1ccc(C(Cl)c2ccc(Cl)cc2)cc1`: the T/C was 105 % of control under setting [8], 107 % of control under setting [9] and 107 % of control under setting [10].

Take `CSc1nn[nH]n1`: the T/C is 93 % of control (dose: 25.0 mg/kg/injection, schedule: Q01DX009 (ip), vehicle: acetone); 96 % of control (dose: 50.0 mg/kg/injection, schedule: Q01DX009 (ip), vehicle: acetone); 92 % of control under setting [4]; 98 % of control (dose: 100.0 mg/kg/injection, schedule: Q01DX001 (ip), vehicle: acetone); 91 % of control (dose: 100.0 mg/kg/injection, schedule: Q01DX009 (ip), vehicle: acetone); 97 % of control (dose: 100.0 mg/kg/injection, schedule: Q04DX003 (ip), vehicle: saline). Moreover, the T/C (dose: 200.0 mg/kg/injection, schedule: Q01DX001 (ip), vehicle: acetone) was 93 % of control.
